Read-outs that look alike come from different tables or passages of the source.
Tests used:
KK-Ay mouse [1] = assay: 7-day subcutaneous administration to KK-Ay mouse: body weight, food intake, blood glucose and insulin; format: in vivo; conditions: 80 mg/kg s.c. for 7 days; for response vs control in vivo at 80 mg/kg: sc, 192 h, male KK-Ay mouse, average; for food intake (in words): KK-Ay mouse
Procedure: After 80 mg/kg of the present compound was administered subcutaneously for 7 days to 7-8 week aged male KK-Ay mouse (n=5˜7, CLEA JAPAN, INC), the amount of food intake from seventh day to eighth day, and body weight of eighth day were measured. For a control group, physiological saline was used. After the body weight was measured, the blood was collected from abdominal aorta by a syringe containing 50 U heparin and centrifuged 12,000×g for five min. Glucose in blood was measured by New Blood.Sugar.Test (Boehringer Ingelheim) and insulin was measured by Insulin-EIA Test (GLAOZYME). Each value is an average value and represented by percent to each value of eighth days in the control group. As to the compounds of and after Example 13, each corresponding hydrochloride was used.

KK-Ay mouse [2] = assay: Plasma leptin concentration in KK-Ay mouse (mouse leptin RIA kit); format: in vivo; conditions: 40 mg/kg s.c., after 24 hours, saline group 26.7±1.9 ng/ml
Procedure: The compound 3cs of Example 3 (40 mg/kg ) was administered subcutaneously to KK-Ay mouse. After 24 hours, the concentration of leptin in plasma was measured by using mouse leptin RIA measuring kit (Linco). The blood was collected from abdominal aorta by a syringe containing 50 U heparin and centrifuged 12,000×g for 5 min to give plasma.

[3] = body weight of eighth day, percent to value of control group (physiological saline), read-out: Body weight
[4] = food intake from seventh to eighth day, percent to value of control group, read-out: Food intake
[5] = glucose in blood on eighth day, percent to value of control group, read-out: Glucose
[6] = insulin in blood on eighth day, percent to value of control group, read-out: Insulin

Structure (SMILES)	response vs control in vivo at 80 mg/kg (KK-Ay mouse [1]; [3])	response vs control in vivo at 80 mg/kg (KK-Ay mouse [1]; [4])	response vs control in vivo at 80 mg/kg (KK-Ay mouse [1]; [5])	response vs control in vivo at 80 mg/kg (KK-Ay mouse [1]; [6])	concentration of leptin in plasma (KK-Ay mouse [2])	food intake (in words) (KK-Ay mouse [1])
Brc1ccc(-c2ccc(OCCCN3CC=CCC3)cc2)cc1 [Example 30]	95%	73%	62%	50%	–	–
Clc1ccc(OCCCN2CC=CCC2)cc1Cl [Example 3, 1-[3-(3,4-Dichloro-phenoxy)-propyl]-1,2,3,6-tetrahydro-pyridine]	84%	82%	73%	49%	44.8 ± 5.2 ng/mL	little repressed
Clc1ccc(OCCN2CC=CCC2)cc1Cl [Example 9, 1-[2-(3,4-Dichloro-phenoxy)-ethyl]-1,2,3,6-tetrahydro-pyridine]	87%	83%	71%	53%	–	–
Clc1cccc(OCCCN2CC=CCC2)c1 [Example 4, 1-[3-(3-Chlorophenoxy)-propyl]-1,2,3,6-tetrahydro-pyridine]	87%	79%	84%	47%	–	–
Cc1ccc(OCCCN2CC=CCC2)cc1C [Example 27]	93%	77%	87%	42%	–	–
FC(F)(F)c1cccc(OCCCN2CC=CCC2)c1 [Example 39]	95%	78%	70%	52%	–	–
Cc1cc(OCCCN2CC=CCC2)ccc1F [Example 23]	89%	76%	67%	91%	–	–
FC(F)(F)c1cc(OCCCN2CC=CCC2)cc(C(F)(F)F)c1 [Example 41]	88%	77%	56%	48%	–	–
FC(F)(F)c1ccc(Oc2ccc(OCCCN3CC=CCC3)cc2)cc1 [Example 44]	82%	59%	54%	21%	–	–
COc1cccc(OCCCN2CC=CCC2)c1 [Example 5, 1-[3-(3-Methoxy-phenoxy)-propyl]-1,2,3,6-tetrahydro-pyridine]	94%	88%	62%	38%	–	–
Fc1cc(F)c(OCCCN2CC=CCC2)c(F)c1 [Example 46]	90%	91%	58%	53%	–	–
Cc1ccc(OCCCN2CC=CCC2)c(Cl)c1 [Example 25]	90%	73%	58%	63%	–	–
C1=CCN(CCCOc2ccc3sccc3c2)CC1 [Example 17]	94%	84%	99%	84%	–	–
Clc1ccc(OCCCN2CC=CCC2)c(Cl)c1Cl [Example 7, 1-[3-(2,3,4-Trichloro-phenoxy)-propyl]-1,2,3,6-tetrahydro-pyridine]	83%	78%	72%	51%	–	–
Clc1ccc(OCCCN2CC=CCC2)c(Cl)c1 [Example 6, 1-[3-(2,4-Dichloro-phenoxy)-propyl]-1,2,3,6-tetrahydro-pyridine]	85%	84%	76%	32%	–	little repressed
Clc1ccc(NCCCN2CC=CCC2)cc1Cl [Example 11, (3,4-Dichlorophenyl)-[3-(3,6-dihydro-2-H-pyridin-1-yl)propyl]-amine]	94%	92%	93%	74%	–	–
Brc1ccc(OCCCN2CC=CCC2)c(Br)c1 [Example 2, 1-[3-(2,4-Dibromo-phenoxy)-propyl]-1,2,3,6-tetrahydro-pyridine]	93%	100%	79%	41%	–	little repressed
CC(C)(C)c1cccc(OCCCN2CC=CCC2)c1 [Example 49]	91%	80%	56%	73%	–	–
Cc1ccc(F)c(OCCCN2CC=CCC2)c1 [Example 45]	94%	82%	79%	70%	–	–
Clc1cc(Cl)cc(OCCCN2CC=CCC2)c1 [Example 21]	89%	74%	80%	53%	–	–
FC(F)(F)c1ccc(COc2ccc(OCCCN3CC=CCC3)cc2Cl)cc1 [Example 33]	93%	72%	54%	44%	–	–
Fc1ccc(OCCCN2CC=CCC2)c(F)c1 [Example 1, 1-[3-(2,4-Difluoro-phenoxy)-propyl]-1,2,3,6-tetrahydro-pyridine]	85%	76%	56%	12%	–	–
Fc1cccc(F)c1OCCCN1CC=CCC1 [Example 36]	86%	75%	61%	54%	–	–
Clc1ccc(COCCCN2CC=CCC2)cc1Cl [Example 8, 1-[3-(3,4-Dichloro-benzyloxy)-propyl]-1,2,3,6-tetrahydro-pyridine]	94%	96%	78%	31%	–	–
Fc1ccc(OCCCN2CC=CCC2)cc1F [Example 32]	92%	85%	73%	69%	–	–
Clc1ccc(OCCCCN2CC=CCC2)cc1Cl [Example 10, 1-[4-(3,4-Dichloro-phenoxy)-butyl]-1,2,3,6-tetrahydro-pyridine]	94%	82%	87%	31%	–	–

Reference: US6649623B1, “Cyclic amine derivatives and use thereof” (Shionogi & Co., Ltd., priority 1999, dated 2003)
